Measured values reported in patent US8796466B2, “Hepatitis C virus inhibitors” (Bristol-Myers Squibb Company, priority 2009, dated 2014).

Tested on: HCV 1b genotype
Assay: HCV Replicon assay (HCV 1b genotype)
Assay type: cell-based, Hepatitis C virus
Conditions: Hepatitis C virus; HCV 1b genotype replicon; Effective 50% inhibitory concentration; read-out: 1b EC50
In short: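 HCV-neo replicon cells, wild-type plus lines carrying NS5A-region mutations, were exposed to compound; luciferase-reporter replicon variants were also used.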

In order of rising EC50:
1. COC(=O)N[C@H](C(=O)N1CCC[C@H]1c1ncc(-c2ccc(C#Cc3ccc4c(c3)CCc3nc([C@@H]5CCCN5C(=O)[C@@H](NC(=O)OC)C(C)C)[nH]c3-4)cc2)[nH]1)C(C)C [Example D-3, methyl ((1S)-1-(((2S)-2-(4-(4-((2-((2S)-1-((2S)-2-((methoxycarbonyl)amino)-3-methylbutanoyl)-2-pyrrolidinyl)-4,5-dihydro-1H-naphtho[1,2-d]imidazol-7-yl)ethynyl)phenyl)-1H-imidazol-2-yl)-1-pyrrolidinyl)carbonyl)-2-methylpropyl)carbamate]  0.006 nM
2. COC(=O)N[C@H](C(=O)N1[C@@H]2C[C@@H]2C[C@H]1c1nc(-c2ccc(/C=C/c3ccc(-c4c[nH]c([C@@H]5C[C@H]6C[C@H]6N5C(=O)[C@@H](NC(=O)OC)C5CCOCC5)n4)cc3)cc2)c[nH]1)C1CCOCC1 [Example M14, dimethyl ((E)-1,2-ethenediylbis(4,1-phenylene-1H-imidazole-4,2-diyl(1R,3S,5R)-2-azabicyclo[3.1.0]hexane-3,2-diyl((1S)-2-oxo-1-(tetrahydro-2H-pyran-4-yl)-2,1-ethanediyl)))biscarbamate]  0.017 nM
3. COC(=O)N[C@H](C(=O)N1CCC[C@H]1c1ncc(-c2cccc(C#Cc3cccc(-c4cnc([C@@H]5CCCN5C(=O)[C@@H](NC(=O)OC)C5CCOCC5)[nH]4)c3)c2)[nH]1)C1CCOCC1 [Example J2, dimethyl (1,2-ethynediylbis(3,1-phenylene-1H-imidazole-4,2-diyl(2S)-2,1-pyrrolidinediyl((1S)-2-oxo-1-(tetrahydro-2H-pyran-4-yl)-2,1-ethanediyl)))biscarbamate]  0.12 nM

Same assay, conditions: Hepatitis C virus; HCV 1b genotype replicon; class symbol; read-out: Range (EC50 values against HCV 1b)

COC(=O)N[C@H](C(=O)N1[C@@H]2C[C@@H]2C[C@H]1c1nc2c([nH]1)-c1ccc(C#Cc3ccc4c(c3)CCc3nc([C@@H]5C[C@H]6C[C@H]6N5C(=O)[C@@H](NC(=O)OC)C(C)C)[nH]c3-4)cc1CC2)C(C)C [Example D-9, methyl ((1S)-1-(((1R,3S,5R)-3-(7-((2-((1R,3S,5R)-2-((2S)-2-((methoxycarbonyl)amino)-3-methylbutanoyl)-2-azabicyclo[3.1.0]hex-3-yl)-4,5-dihydro-1H-naphtho[1,2-d]imidazol-7-yl)ethynyl)-4,5-dihydro-1H-naphtho[1,2-d]imidazol-2-yl)-2-azabicyclo[3.1.0]hex-2-yl)carbonyl)-2-methylpropyl)carbamate] and COC(=O)N[C@H](C(=O)N1CCC[C@H]1c1ncc(-c2ccc(C#Cc3ccc4c(c3)CCc3nc([C@@H]5CCCN5C(=O)[C@@H](NC(=O)OC)C(C)C)[nH]c3-4)cc2)[nH]1)C(C)C [Example D-3, methyl ((1S)-1-(((2S)-2-(4-(4-((2-((2S)-1-((2S)-2-((methoxycarbonyl)amino)-3-methylbutanoyl)-2-pyrrolidinyl)-4,5-dihydro-1H-naphtho[1,2-d]imidazol-7-yl)ethynyl)phenyl)-1H-imidazol-2-yl)-1-pyrrolidinyl)carbonyl)-2-methylpropyl)carbamate] fall in the same range of EC50: 0.002 to 0.099 nM for the first, 0.002 to 0.099 nM for the second.

First: COC(=O)N[C@H](C(=O)N1[C@@H]2C[C@@H]2C[C@H]1c1nc(-c2ccc(/C=C/c3ccc(-c4c[nH]c([C@@H]5C[C@H]6C[C@H]6N5C(=O)[C@@H](NC(=O)OC)C5CCOCC5)n4)cc3)cc2)c[nH]1)C1CCOCC1 [Example M14, dimethyl ((E)-1,2-ethenediylbis(4,1-phenylene-1H-imidazole-4,2-diyl(1R,3S,5R)-2-azabicyclo[3.1.0]hexane-3,2-diyl((1S)-2-oxo-1-(tetrahydro-2H-pyran-4-yl)-2,1-ethanediyl)))biscarbamate]
Second: COC(=O)N[C@H](C(=O)N1[C@@H]2C[C@@H]2C[C@H]1c1nc(-c2ccc(C#Cc3ccc(-c4c[nH]c([C@@H]5C[C@H]6C[C@H]6N5C(=O)[C@@H](NC(=O)OC)C5CCC5)n4)cc3)cc2)c[nH]1)C1CCC1 [Example M5, dimethyl (1,2-ethynediylbis(4,1-phenylene-1H-imidazole-4,2-diyl(1R,3S,5R)-2-azabicyclo[3.1.0]hexane-3,2-diyl((1S)-1-cyclobutyl-2-oxo-2,1-ethanediyl)))biscarbamate]
The EC50 of the first is lower: 0.002 to 0.099 nM for the first, 0.1 to 0.99 nM for the second.

First: CCNC(=O)N[C@@H](C(=O)N1CCC[C@H]1c1nc(-c2ccc(COCc3ccc(-c4cnc([C@@H]5CCCN5C(=O)[C@H](NC(=O)NCC)c5ccccc5)[nH]4)cc3)cc2)c[nH]1)c1ccccc1 [OL-18, 1-ethyl-3-((1R)-2-((2S)-2-(4-(4-(((4-(2-((2S)-1-((2R)-2-((ethylcarbamoyl)amino)-2-phenylacetyl)-2-pyrrolidinyl)-1H-imidazol-5-yl)benzyl)oxy)methyl)phenyl)-1H-imidazol-2-yl)-1-pyrrolidinyl)-2-oxo-1-phenylethyl)urea]
Second: O=C(NC1CCCC1)N[C@@H](C(=O)N1CCC[C@H]1c1nc(-c2ccc(COCc3ccc(-c4cnc([C@@H]5CCCN5C(=O)[C@H](NC(=O)NC5CCCC5)c5ccccc5)[nH]4)cc3)cc2)c[nH]1)c1ccccc1 [OL-19, 1-cyclopentyl-3-((1R)-2-((2S)-2-(4-(4-(((4-(2-((2S)-1-((2R)-2-((cyclopentylcarbamoyl)amino)-2-phenylacetyl)-2-pyrrolidinyl)-1H-imidazol-5-yl)benzyl)oxy)methyl)phenyl)-1H-imidazol-2-yl)-1-pyrrolidinyl)-2-oxo-1-phenylethyl)urea]
The EC50 of the first is lower: 0.002 to 0.099 nM for the first, 1 to 9.9 nM for the second. The first is the more potent here.

Compared with O=C([C@H](O)c1ccccc1)N1CCC[C@H]1c1nc(-c2ccc(CCc3ccc(-c4c[nH]c([C@@H]5CCCN5C(=O)[C@H](O)c5ccccc5)n4)cc3)cc2)c[nH]1 [OL-10, (1R,1′R)-2,2′-(1,2-ethanediylbis(4,1-phenylene-1H-imidazole-4,2-diyl(2S)-2,1-pyrrolidinediyl))bis(2-oxo-1-phenylethanol)], O=C([C@H](O)c1ccccc1)N1CCC[C@H]1c1nc(-c2ccc(COCc3cccc(-c4c[nH]c([C@@H]5CCCN5C(=O)[C@H](O)c5ccccc5)n4)c3)cc2)c[nH]1 [OL-21, (1R)-2-((2S)-2-(4-(3-(((4-(2-((2S)-1-((2R)-2-hydroxy-2-phenylacetyl)-2-pyrrolidinyl)-1H-imidazol-4-yl)benzyl)oxy)methyl)phenyl)-1H-imidazol-2-yl)-1-pyrrolidinyl)-2-oxo-1-phenylethanol] is higher in EC50: 0.002 to 0.099 nM for the first, 0.1 to 0.99 nM for the second.

First: COC(=O)N[C@H](C(=O)N1CCC[C@H]1c1nc(-c2ccc(C#Cc3ccc(-c4c[nH]c([C@@H]5CCCN5C(=O)[C@@H](NC(=O)OC)C5CCOCC5)n4)cc3)cc2)c[nH]1)C1CCOCC1 [Example M2.1, dimethyl (1,2-ethynediylbis(4,1-phenylene-1H-imidazole-4,2-diyl(2S)-2,1-pyrrolidinediyl((1S)-2-oxo-1-(tetrahydro-2H-pyran-4-yl)-2,1-ethanediyl)))biscarbamate]
Second: COC(=O)N[C@H](C(=O)N1CCC[C@H]1c1ncc(-c2cccc(C#Cc3cccc(-c4cnc([C@@H]5CCCN5C(=O)[C@@H](NC(=O)OC)C5CCOCC5)[nH]4)c3)c2)[nH]1)C1CCOCC1 [Example J2, dimethyl (1,2-ethynediylbis(3,1-phenylene-1H-imidazole-4,2-diyl(2S)-2,1-pyrrolidinediyl((1S)-2-oxo-1-(tetrahydro-2H-pyran-4-yl)-2,1-ethanediyl)))biscarbamate]
The EC50 of the first is lower: 0.002 to 0.099 nM for the first, 0.1 to 0.99 nM for the second.

COC(=O)N[C@H](C(=O)N1[C@@H]2C[C@@H]2C[C@H]1c1nc(-c2ccc([C@@H]3C[C@H]3c3ccc(-c4c[nH]c([C@@H]5C[C@H]6C[C@H]6N5C(=O)[C@@H](NC(=O)OC)C(C)C)n4)cc3)cc2)c[nH]1)C(C)C [m9.5, methyl ((1S)-1-(((1R,3S,5R)-3-(4-(4-((1R,2R)-2-(4-(2-((1R,3S,5R)-2-((2S)-2-((methoxycarbonyl)amino)-3-methylbutanoyl)-2-azabicyclo[3.1.0]hex-3-yl)-1H-imidazol-4-yl)phenyl)cyclopropyl)phenyl)-1H-imidazol-2-yl)-2-azabicyclo[3.1.0]hex-2-yl)carbonyl)-2-methylpropyl)carbamate] and COC(=O)N[C@H](C(=O)N1CCOCC1c1ncc(-c2ccc(C#Cc3ccc(-c4cnc(C5COCCN5C(=O)[C@@H](NC(=O)OC)C(C)C)[nH]4)cc3)cc2)[nH]1)C(C)C (stereo in doubt) [Example N5, methyl ((1S)-1-(((3S)-3-(4-(4-((4-(2-((3S)-4-((2S)-2-((methoxycarbonyl)amino)-3-methylbutanoyl)-3-morpholinyl)-1H-imidazol-4-yl)phenyl)ethynyl)phenyl)-1H-imidazol-2-yl)-4-morpholinyl)carbonyl)-2-methylpropyl)carbamate] fall in the same range of EC50: 0.002 to 0.099 nM for the first, 0.002 to 0.099 nM for the second.

First: CN(C)[C@@H](C(=O)N1CCC[C@H]1c1nc(-c2ccc(-c3ccc(-c4ccc(-c5c[nH]c([C@@H]6CCCN6C(=O)[C@@H](c6ccccc6)N(C)C)n5)cc4)cc3)cc2)c[nH]1)c1ccccc1 [Example D-2, (1R)-2-((2S)-2-(4-(4″-(2-((2S)-1-((2R)-2-(dimethylamino)-2-phenylacetyl)-2-pyrrolidinyl)-1H-imidazol-5-yl)-1,1′:4′,1″-terphenyl-4-yl)-1H-imidazol-2-yl)-1-pyrrolidinyl)-N,N-dimethyl-2-oxo-1-phenylethanamine]
Second: CN(C)[C@@H](C(=O)N1CCC[C@H]1c1ncc(-c2ccc(Oc3ccc(-c4cnc([C@@H]5CCCN5C(=O)[C@@H](c5ccccc5)N(C)C)[nH]4)cc3)cc2)[nH]1)c1ccccc1 [OL-1, (1R)-2-((2S)-2-(4-(4-(4-(2-((2S)-1-((2R)-2-(dimethylamino)-2-phenylacetyl)-2-pyrrolidinyl)-1H-imidazol-5-yl)phenoxy)phenyl)-1H-imidazol-2-yl)-1-pyrrolidinyl)-N,N-dimethyl-2-oxo-1-phenylethanamine]
The EC50 of the first is lower: 0.1 to 0.99 nM for the first, 1 to 9.9 nM for the second. The first is the more potent here.

COC(=O)N[C@@H](C(=O)N1CCC[C@H]1c1ncc(-c2ccc(C#Cc3ccc4c(c3)CCc3nc([C@@H]5CCCN5C(=O)[C@H](NC(=O)OC)c5ccccc5)[nH]c3-4)cc2)[nH]1)c1ccccc1 [Example D-4, methyl ((1R)-2-((2S)-2-(4-(4-((2-((2S)-1-((2R)-2-((methoxycarbonyl)amino)-2-phenylacetyl)-2-pyrrolidinyl)-4,5-dihydro-1H-naphtho[1,2-d]imidazol-7-yl)ethynyl)phenyl)-1H-imidazol-2-yl)-1-pyrrolidinyl)-2-oxo-1-phenylethyl)carbamate] and COC(=O)N[C@@H](C(=O)N1CCC[C@H]1c1nc(-c2ccc(COc3ccc(-c4c[nH]c([C@@H]5CCCN5C(=O)[C@H](NC(=O)OC)c5ccccc5)n4)cc3)cc2)c[nH]1)c1ccccc1 [OL-8, methyl ((1R)-2-((2S)-2-(4-(4-((4-(2-((2S)-1-((2R)-2-((methoxycarbonyl)amino)-2-phenylacetyl)-2-pyrrolidinyl)-1H-imidazol-4-yl)benzyl)oxy)phenyl)-1H-imidazol-2-yl)-1-pyrrolidinyl)-2-oxo-1-phenylethyl)carbamate] fall in the same range of EC50: 0.002 to 0.099 nM for the first, 0.002 to 0.099 nM for the second.

First: CNC(=O)N[C@@H](C(=O)N1CCC[C@H]1c1nc(-c2ccc(COCc3cccc(-c4c[nH]c([C@@H]5CCCN5C(=O)[C@H](NC(=O)NC)c5ccccc5)n4)c3)cc2)c[nH]1)c1ccccc1 [OL-23, 1-methyl-3-((1R)-2-((2S)-2-(4-(3-(((4-(2-((2S)-1-((2R)-2-((methylcarbamoyl)amino)-2-phenylacetyl)-2-pyrrolidinyl)-1H-imidazol-4-yl)benzyl)oxy)methyl)phenyl)-1H-imidazol-2-yl)-1-pyrrolidinyl)-2-oxo-1-phenylethyl)urea]
Second: COC(=O)N[C@H](C(=O)N1CCC[C@H]1c1ncc(-c2ccc(C#Cc3ccc4c(ccc5nc([C@@H]6CCCN6C(=O)[C@@H](NC(=O)OC)C(C)C)[nH]c54)c3)cc2)[nH]1)C(C)C [Example D-6, methyl ((1S)-1-(((2S)-2-(4-(4-((2-((2S)-1-((2S)-2-((methoxycarbonyl)amino)-3-methylbutanoyl)-2-pyrrolidinyl)-1H-naphtho[1,2-d]imidazol-7-yl)ethynyl)phenyl)-1H-imidazol-2-yl)-1-pyrrolidinyl)carbonyl)-2-methylpropyl)carbamate]
The EC50 of the first is higher: 0.1 to 0.99 nM for the first, 0.002 to 0.099 nM for the second. The second is the more potent here.
